Source: publication PMC8538783, “Green Oxidation of Amines by a Novel Cold-Adapted Monoamine Oxidase MAO P3 from Psychrophilic Fungi Pseudogymnoascus sp. P3” (Molecules, 2021)
Where “and” joins values, the source holds several entries; their conditions need not be identical. Equal entries are not always repeated. Where two headings read alike, the source gives them in different places.

Tests used:
native MAO N = conditions: cited from earlier work
MAO P3 [1] = assay: Effect of extra FAD in the reaction mixture on MAO P3 activity; format: biochemical, Pseudogymnoascus sp. P3; conditions: 0.2 mM FAD in reaction mixture, compared to holoenzyme without supplementation of FAD
Procedure: (§1) The activity of MAO P3 was measured by a colorimetric method which is based on the formation of orange-brownish tetraguaiacol in the presence of H2O2 and peroxidase (insert in Figure 2A). The reaction mixture contained 0.5 mL of the enzyme sample, 0.25 mL of 10 mM potassium phosphate buffer pH 7.2, 0.25 mL of 20 mM amine substrate (to identify a potential MAO producer, primary–n-butylamine, and secondary–6,6-dimethyl-3-azabicyclohexane, amines were used), 0.02 mL of peroxidase (90 U/mL), and 0.4 mL of 0.02 M guaiacol (all reagents from MerckMillipore, Burlington, MA, USA). The reaction mixture was incubated at 30 °C for 30 min.
Reconstruction of flavoprotein MAO P3 was carried out in 10 mM potassium phosphate buffer pH 7.2 in a total volume of 5 mL, with different conditions of: FAD concentration (5, 10, 15, 20, 25, and 50 μM), temperature (5, 10, 15, 20, 25, and 30 °C), and time of incubation (from 10 min to 60 min). After incubation, extra FAD was removed by centrifugation at 5000 rpm, 4 °C, 20 min in Centricon concentrators of MWCO of 10 kDa (MerckMillipore, Burlington, MA, USA). The absorption spectrum was measured on a flat-bottom 96-well plate on a MultiScanGo plate reader (ThermoFisher Scientific, Waltham, MA, USA).

MAO P3 [2] = assay: Initial oxidation screening: bioconversion of amine substrates by cell-free extract, GC-MS; format: biochemical, Pseudogymnoascus sp. P3; conditions: for Rate of Oxidation: 10 mM substrate, 10 mM potassium phosphate buffer pH 7.2, cell-free intracellular extract of P3 strain, 4 h at 30 °C, relative to compound 9 = 100%
Procedure: (§2) Substrate specificity of MAO P3 was examined towards sixteen amine substrates (listed in Table 3) that differed in the number of carbons and various substitutions. Bioconversion was carried out in 5 mL glass tubes (Schott, Germany), where the total volume of the reaction was 2.5 mL and was comprised of 1 mL of MAO P3 (1 U/mL), where the cell-free extracts were used for the initial oxidation screening and the purified enzyme, for substrate specificity. An amount of 0.75 mL of a substrate (in the range of concentrations between 10 and 100 mM) was resuspended in 0.1 M potassium phosphate pH 7.2, and 0.75 mL of 10 mM potassium phosphate buffer pH 7.2. Initial oxidation screening was carried out for 4 h at 30 °C, 810 rpm. The substrate specificity was measured at 30 °C; reactions were carried out for 5 h, 810 rpm. In order to analyze the products of the bioconversion, samples were first neutralized by the addition of 0.25 mL of 1 M NaOH. An amount of 0.5 mL of dichloromethane was added to samples and incubated at room temperature with shaking for 1 min. The samples were centrifuged for 5 min, 5000 rpm, 4 °C. The organic phase was collected for the gas chromatography-mass spectrometry (GC-MS) analysis. The Km values were calculated based on […] curves (see the Supplementary Materials).
Samples were injected with the GerstelMultiPurpose sampler (MPS 2). […] Helium was used as a carrier gas with a flow rate of 1.5 mL/min. The injector temperature was held at 250 °C. The oven temperature was initially held at 40 °C for 2 min, ramped up to 200 °C by 10 °C/min; the total run time was 20 min. The detector was operated in EI mode with the transfer line maintained at 280 °C. All substrates were purchased from MerckMillipore, USA, and quantified by GC analysis based on their peak areas and calibration curves prepared for each individual. GC-MS spectra are presented in the Supplementary Materials.

MAO P3 [3] = assay: Substrate specificity (Vmax, Km) of purified MAO P3, GC-MS; format: biochemical, Pseudogymnoascus sp. P3
Procedure: as §2
GC-MS analyses were carried out on a Pegasus 4D (LECO, USA) apparatus, equipped with an Agilent 6890N gas chromatograph coupled with a time-of-flight mass spectrometer (LECO, Saint Joseph, MI, USA). Samples were injected with the GerstelMultiPurpose sampler (MPS 2). The GC was fitted with a BPX5 capillary column of 30 m × 0.25 mm × 0.25 µm (SGE). Helium was used as a carrier gas with a flow rate of 1.5 mL/min. The injector temperature was held at 250 °C. The oven temperature was initially held at 40 °C for 2 min, ramped up to 200 °C by 10 °C/min; the total run time was 20 min. The detector was operated in EI mode with the transfer line maintained at 280 °C. All substrates were purchased from MerckMillipore, USA, and quantified by GC analysis based on their peak areas and calibration curves prepared for each individual. GC-MS spectra are presented in the Supplementary Materials.
Method S3. Determination of Km and Vmax values based on Lineweaver-Burk curves
The double-reciprocal curve was create based on the inverse initial velocity as a function of the inverse substrate
concentration. Curves were created for each amine substrate (Fig. S2), based on the results of GC-MS analysis (Paragraph
Figure S4. The double-reciprocal curves for MAO P3 amines substrates: A. 3-azabicyclo[3.3.0]octane;
B. hexamethyleneimine; C. 6,6-dimethyl-3-azabicyclohexane; D. cyclopentylamine; E. α-methylbenzylamine;
F. pyrrolidine; G. sec-butylamine; H. indoline.
(1 picture or pasted object on this page, not shown here)

MAO P3 [4] = assay: Initial oxidation screening: bioconversion of amine substrates by cell-free extract, GC-MS; format: biochemical, Pseudogymnoascus sp. P3; conditions: 24 h of incubation at 30 °C with shaking
MAO N (N338S, M348K) = system: MAO N (N338S, M348K); parameters: method as in PMID 12207381; conditions: MAO N with two point mutations (N338S, M348K); cited from earlier work
MAO = assay: Colorimetric MAO activity assay of intracellular protein extract of P3 strain; format: biochemical, Pseudogymnoascus sp. P3; conditions: 30 °C, 30 min
Procedure: as §1
The absorbance of the samples was measured at 436 nm on the UV/visible spectrophotometer (UV-1800 Shimatdsu, Kyoto, Japan). A unit of enzyme activity was defined as the amount of enzyme that catalyzes the formation of 1.0 μmol of H2O2 per min.
Figure 2 MAO biosynthesis in 14 psychrophilic fungi strains. The activity was measured towards a primary amine (n-butylamine) and a secondary amine (6,6-dimethyl-3-azabicyclohexane), for each substrate. The reaction was carried out at 30 °C for 30 min with continuous shaking in 10 mM potassium phosphate buffer […]. (A) Activity after the growth in the induction medium, without inoculation from a solid culture; insert: scheme of the measurement of MAO activity in psychrophilic fungi strains; absorbance of tetraguaiacol is measured at 436 nm. (B) Activity after the growth in the induction medium, with inoculation from a solid culture.

MAO N D5 = system: MAO N D5; parameters: method as in PMID 20146293; conditions: recombinant MAO N D5; cited from earlier work
MAO P3 [5] = assay: Inhibition analysis of MAO P3 by clorgyline, colorimetric guaiacol/peroxidase assay; format: biochemical, Pseudogymnoascus sp. P3; conditions: preincubated 30 min at 30 °C; substrate 6,6-dimethyl-3-azabicyclohexane
Procedure: The enzyme was preincubated with different concentrations (from 0.1 to 10^−8 mM) of clorgyline (MerckMillipore, Burlington, MA, USA) for 30 min at 30 °C. MAO P3 activity was measured according to the above-mentioned procedure. Clorgyline solution (1 mM) was prepared in 10 mM potassium phosphate buffer pH 7.2.

MAO A = system: MAO A; parameters: method as in PMID 11134050; conditions: cited from earlier work
Pseudogymnoascus sp. P3 = format: cell-based
Procedure: The 125 mL cultures were inoculated from the glycerol stocks. The strains were cultured at 20 °C for 14 days with shaking at 100 rpm in 0.5 L flasks. The growth medium was composed of 3% (w/v) glucose, 0.1% (w/v) KH2PO4, 0.05% (w/v) MgSO4, 0.05% (w/v) KCl, and 0.1% (w/v) NaNO3, which was replaced by 0.1% (v/v) of n-butylamine (MAO inducer) in the induction medium. The concentration of n-butylamine was optimized (tested concentrations: 0.01, 0.03, 0.05, 0.10, 0.15, 0.20, and 0.50%) to maximize the biosynthesis of MAO. The mycelium was collected by filtration, wet mass was weighed and used for further experiments.
as §1

[6] = purified MAO P3 1 U/mL, 0.1 M potassium phosphate buffer pH 7.2, 30 °C
[7] = induction medium inoculated from glycerol stock (no solid preculture)
[8] = inoculation from solid culture (7 days, 20 °C)

## NCCc1ccccc1 [2-phenethylamine]
Native MAO N
  Km: 100 µM

## Cc1cc2nc3c(=O)[nH]c(=O)nc-3n(C[C@H](O)[C@H](O)[C@H](O)COP(=O)(O)OP(=O)(O)OC[C@H]3O[C@@H](n4cnc5c(N)ncnc54)[C@H](O)[C@@H]3O)c2cc1C [FAD, flavin adenine dinucleotide]
MAO P3 [1]
  change of MAO P3 activity: increased two-fold

## CCC(C)N (centres unmarked) [Substrate 1, sec-butylamine]
MAO P3 [2]
  Rate of Oxidation: 29%
MAO P3 [3]; [6]
  Km: 18000 µM
  Vmax: 0.17 mM/h

## NC1CCCC1 [Substrate 2, cyclopentylamine]
MAO P3 [2]
  Rate of Oxidation: 31%
MAO P3 [3]; [6]
  Km: 8220 µM
  Vmax: 0.47 mM/h

## C1CCNC1 [Substrate 3, pyrrolidine]
MAO P3 [2]
  Rate of Oxidation: 36%
MAO P3 [3]; [6]
  Km: 14300 µM
  Vmax: 0.16 mM/h

## CN1CCCC1 [Substrate 4, 1-methylpyrrolidine]
MAO P3 [2]
  oxidation/conversion by MAO P3 (in words): no activity
  Rate of Oxidation: 0%
MAO P3 [4]
  conversion by MAO P3 after prolonged incubation (in words): unconverted

## CC(N)c1ccccc1 (stereo not drawn) [Substrate 5, α-methylbenzylamine]
MAO P3 [2]
  Rate of Oxidation: 41%
MAO N (N338S, M348K)
  Km: 400 µM
Native MAO N
  kcat: 0.00283 s⁻¹
MAO P3 [3]; [6]
  Km: 4100 µM and 4130 µM
  Vmax: 0.27 mM/h

## C1CCCNCC1 [Substrate 6, hexamethyleneimine]
MAO P3 [2]
  Rate of Oxidation: 30%
MAO P3 [3]; [6]
  Km: 2640 µM and 2560 µM
  Vmax: 0.72 mM/h

## O=C1NC2C=CC1C2 (centres unmarked) [Substrate 7, 2-azabicyclo[2.2.1]hept-5-en-3-one]
MAO P3 [2]
  Rate of Oxidation: 0%

## c1ccncc1 [Substrate 8, pyridine]
MAO P3 [2]
  Rate of Oxidation: 0%

## CC1(C)C2CNCC21 (centres unmarked) [Substrate 9, 6,6-dimethyl-3-azabicyclo[3.1.0]hexane]
MAO P3 [2]
  Rate of Oxidation: 100%
MAO; [7]
  MAO activity towards the amine: 959 ± 7.2 U/L
MAO; [8]
  MAO activity towards the amine: 1470 ± 10.6 U/L
MAO P3 [3]; [6]
  Km: 2400 µM
  Vmax: 1.1 mM/h

## C1CC2CNCC2C1 (centres unmarked) [Substrate 10, 3-azabicyclo[3.3.0]octane]
MAO P3 [2]
  Rate of Oxidation: 67%
MAO N D5
  rate of initial oxidation: 16%
MAO P3 [3]; [6]
  Km: 10400 µM
  Vmax: 0.24 mM/h

## C1CC[C@H]2CNC[C@H]2C1 [Substrate 11, cis-8-azabicyclo[4.3.0]nonane]
MAO P3 [2]
  Rate of Oxidation: 0%
MAO N D5
  rate of initial oxidation: 19%
MAO P3 [4]
  conversion by MAO P3 after prolonged incubation (in words): unconverted

## c1ccc2c(c1)CCN2 [Substrate 12, indoline]
MAO P3 [2]
  Rate of Oxidation: 9%
MAO P3 [3]; pH 7.2
  Km: 20400 µM
MAO P3 [3]; [6]
  Vmax: 0.14 mM/h

## NCCN1CCCC1 [Substrate 13, 1-(2-aminoethyl)pyrrolidine]
MAO P3 [2]
  oxidation/conversion by MAO P3 (in words): no activity
  Rate of Oxidation: 0%
MAO P3 [4]
  conversion by MAO P3 after prolonged incubation (in words): unconverted

## NC(c1ccccc1)c1ccccc1 [Substrate 14, benzylhydrylamine]
MAO P3 [2]
  oxidation/conversion by MAO P3 (in words): not able to oxidize
  Rate of Oxidation: 0%
MAO P3 [4]
  conversion by MAO P3 after prolonged incubation (in words): unconverted

## NCCCCN [Substrate 15, putrescine]
MAO P3 [2]
  oxidation/conversion by MAO P3 (in words): not able to convert
  Rate of Oxidation: 0%

## NCCCCNCCCN [Substrate 16, spermidine]
MAO P3 [2]
  oxidation/conversion by MAO P3 (in words): not able to convert
  Rate of Oxidation: 0%

## CCCCCN [amylamine]
Native MAO N
  kcat: 16.67 s⁻¹

## NCc1ccccc1 [benzylamine]
Native MAO N
  Km: 240 µM
  kcat: 6.18 s⁻¹

## C#CCN(C)CCCOc1ccc(Cl)cc1Cl [clorgyline]
MAO P3 [5]
  IC50: 18 nM
MAO A
  IC50: 1.2 nM
  low concentration that inhibits MAO A: 10^−8 M

## CCCCCCN [hexylamine]
Native MAO N
  Km: 200 µM

## CCCCN [n-butylamine]
MAO; [7]
  MAO activity towards the amine: 910 ± 4.8 U/L
MAO; [8]
  MAO activity towards the amine: 1350 ± 10.5 U/L
Native MAO N
  Km: 600 µM
Pseudogymnoascus sp. P3
  effect on the psychrophilic strains: acted deadly
Pseudogymnoascus sp. P3; 0.01% n-butylamine in induction medium
  Relative Activity of MAO P3: 6.4 ± 0.31%
Pseudogymnoascus sp. P3; 0.03% n-butylamine in induction medium
  Relative Activity of MAO P3: 19.9 ± 0.31%
Pseudogymnoascus sp. P3; 0.05% n-butylamine in induction medium
  Relative Activity of MAO P3: 30.7 ± 0.20%
Pseudogymnoascus sp. P3; 0.10% n-butylamine in induction medium
  Relative Activity of MAO P3: 100.0%
Pseudogymnoascus sp. P3; 0.15% n-butylamine in induction medium
  Relative Activity of MAO P3: 45.9 ± 0.34%
Pseudogymnoascus sp. P3; 0.20% n-butylamine in induction medium
  Relative Activity of MAO P3: 9.6 ± 0.20%
Pseudogymnoascus sp. P3; 0.50% n-butylamine in induction medium
  Relative Activity of MAO P3: 0.0%

## CCCN [propylamine]
Native MAO N
  Km: 1600 µM
